By Emax is commonly meant the size of the effect at its maximum, as opposed to the concentration needed. As a reminder, the EC50 is the concentration needed to bring the measured effect to its halfway point.

18 compounds from patent publication US10189809B2, “SGC stimulators” (Ironwood Pharmaceuticals, Inc., priority 2010, dated 2019) can be followed below.

The target in experiment [1] is T1, soluble guanylate cyclase (sGC) (Homo sapiens (Human), UniProt Q02108+Q02153). Nature of the experiment: sGC-HEK-cGMP assay run in the absence of SNP (HEK WC assay). The class given is cell-based. Particulars: compound at 30 μM, absence of SNP. The procedure, abridged: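 Intracellular cGMP was measured by LC/MS, using a standard curve, in HEK293 cells treated with compound for 10 min at 37° C after a 15 min 0.5 mM IBMX pretreatment, with no SNP present. Lysis and quench used 0.1 M HCl. EC50 values came from concentration-response fits.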
T1 sequence (Q02153 whole entry): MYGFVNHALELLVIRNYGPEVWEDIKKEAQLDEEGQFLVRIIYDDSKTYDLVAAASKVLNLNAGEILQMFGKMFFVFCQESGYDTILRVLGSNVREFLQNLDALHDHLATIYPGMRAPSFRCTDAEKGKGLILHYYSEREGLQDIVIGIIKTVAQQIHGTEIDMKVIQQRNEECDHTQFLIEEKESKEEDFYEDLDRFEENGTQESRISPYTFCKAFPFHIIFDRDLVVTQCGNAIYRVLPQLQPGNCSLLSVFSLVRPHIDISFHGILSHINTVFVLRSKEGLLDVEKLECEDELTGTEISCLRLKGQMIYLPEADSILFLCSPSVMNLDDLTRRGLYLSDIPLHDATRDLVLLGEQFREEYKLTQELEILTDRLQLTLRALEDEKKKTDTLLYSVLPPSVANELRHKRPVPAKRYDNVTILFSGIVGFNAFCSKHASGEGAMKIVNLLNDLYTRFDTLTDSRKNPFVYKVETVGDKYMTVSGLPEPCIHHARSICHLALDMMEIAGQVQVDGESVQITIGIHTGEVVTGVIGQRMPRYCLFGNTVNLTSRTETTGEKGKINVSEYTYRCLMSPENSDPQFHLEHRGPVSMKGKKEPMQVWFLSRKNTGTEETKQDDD
T1 sequence (Q02108 whole entry): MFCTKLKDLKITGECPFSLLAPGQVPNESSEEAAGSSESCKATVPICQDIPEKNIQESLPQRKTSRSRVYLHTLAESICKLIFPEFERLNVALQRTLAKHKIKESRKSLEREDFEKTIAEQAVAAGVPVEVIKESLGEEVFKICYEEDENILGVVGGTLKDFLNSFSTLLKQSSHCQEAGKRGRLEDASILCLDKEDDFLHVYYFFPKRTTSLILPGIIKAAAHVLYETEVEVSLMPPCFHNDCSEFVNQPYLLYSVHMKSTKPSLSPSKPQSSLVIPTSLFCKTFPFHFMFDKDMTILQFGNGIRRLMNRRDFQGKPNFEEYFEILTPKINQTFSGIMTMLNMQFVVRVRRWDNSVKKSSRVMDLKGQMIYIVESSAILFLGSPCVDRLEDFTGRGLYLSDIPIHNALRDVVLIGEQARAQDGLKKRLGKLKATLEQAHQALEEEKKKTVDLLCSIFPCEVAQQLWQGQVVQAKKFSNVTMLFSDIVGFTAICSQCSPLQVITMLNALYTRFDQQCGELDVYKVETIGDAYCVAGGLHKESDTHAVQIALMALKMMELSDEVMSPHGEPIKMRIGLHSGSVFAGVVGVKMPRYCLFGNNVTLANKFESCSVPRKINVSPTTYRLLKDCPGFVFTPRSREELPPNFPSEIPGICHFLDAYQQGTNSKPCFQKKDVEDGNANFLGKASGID

For experiment [2], the target named is T1, soluble guanylate cyclase (sGC). Put plainly: sGC-HEK-cGMP assay run with SNP incubation (HEK WC assay). The class given is cell-based. The following applies: for HEK WC Assay (fold increase at 30 μM in the presence of 10 μM SNP): compound at 30 μM; for EC50: in the presence of 10 uM SNP. The procedure, abridged:
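EC50 values derive from concentration-response curves of intracellular cGMP in HEK293 cells, which express sGC endogenously. Compound and sodium nitroprusside were co-incubated 10 min at 37 °C after a 15-min 0.5 mM IBMX step, with 0.1 M HCl lysis and 1% DMSO vehicle.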

Setting [3] is: read-out: HEK WC Assay (% Emax at 1 μM with 10 uM SNP).
Setting [4] is: read-out: HEK WC Assay (% Emax at 10 μM with 10 uM SNP).
Where [5] appears, read: read-out: HEK WC Assay (% Emax at 30 μM with 10 uM SNP).

Where two headings read alike, the source gives them in different places. Where only a bound is given, the exact number is not on record here.

In the case of `FC(F)(F)c1ccccc1Cn1nc(-c2ncccn2)cc1-c1ccon1` [Compound I-201], the “HEK WC Assay (fold increase at 30 μM in the absence of SNP)” value in experiment [1] is “B (B = 1 to <2 fold increase)”. For the same compound, the “HEK WC Assay (fold increase at 30 μM in the presence of 10 μM SNP)” value in experiment [2] is “B (B = 1 to <2 fold increase)”. For the same compound, the Emax in experiment [2] (setting [3]), in experiment [2] (setting [4]) and in experiment [2] (setting [5]) was 0 to 10% throughout.

In the case of `Fc1ccccc1Cn1nc(-c2ccccn2)cc1N1CCCC1` [Compound I-288], in experiment [1], the “HEK WC Assay (fold increase at 30 μM in the absence of SNP)” value is on record as “C (C = 2 to <5 fold increase)”. Besides, the “HEK WC Assay (fold increase at 30 μM in the presence of 10 μM SNP)” value in experiment [2] was “C (C = 2 to <5 fold increase)”.

In the case of `Nc1nc(-c2cc(-c3ccon3)n(Cc3ccccc3F)n2)ncc1NC(=O)C1(c2ccccc2)CCC1` [Compound I-218], in experiment [1], the “HEK WC Assay (fold increase at 30 μM in the absence of SNP)” value is listed as “D (D = 5 to <10 fold increase)”. Besides, in experiment [2], the “HEK WC Assay (fold increase at 30 μM in the presence of 10 μM SNP)” value is reported as “E (E = 10 to <20 fold increase)”. Moreover, the EC50 in experiment [2] lay within 20 to 40 µM. For the same compound, the Emax in experiment [2] (setting [3]) was in the range of 40 to 60%; in experiment [2] (setting [4]) it was 40 to 60%; in experiment [2] (setting [5]), 20 to 40%.

Turning to `Oc1ccc(-c2cc(-c3ccccn3)nn2Cc2ccccc2F)cc1` [Compound I-310], in experiment [1], the “HEK WC Assay (fold increase at 30 μM in the absence of SNP)” value was “B (B = 1 to <2 fold increase)”. The Emax in experiment [2] (setting [4]) and in experiment [2] (setting [5]) was 0 to 10% throughout.

As to `Nc1nc(-c2cc(-c3ccon3)n(Cc3ccccc3F)n2)ncc1NC(=O)[C@@H]1CCCN1C(=O)C(F)(F)F` [Compound I-219], the “HEK WC Assay (fold increase at 30 μM in the absence of SNP)” value in experiment [1] is “D (D = 5 to <10 fold increase)”. Further, the “HEK WC Assay (fold increase at 30 μM in the presence of 10 μM SNP)” value in experiment [2] is on record as “E (E = 10 to <20 fold increase)”. The EC50 in experiment [2] is less than 20 µM. Besides, the values for the Emax in experiment [2] (setting [3]), in experiment [2] (setting [4]) and in experiment [2] (setting [5]) were 20 to 40%, 60 to 80% and 60 to 80%, respectively.

`Oc1ccnc(-c2cc(-c3ccon3)n(Cc3ccccc3F)n2)n1` [Compound I-160, 2-(1-(2-fluorobenzyl)-5-(isoxazol-3-yl)-1H-pyrazol-3-yl)pyrimidin-4-ol]: in experiment [1], the “HEK WC Assay (fold increase at 30 μM in the absence of SNP)” value is listed as “C (C = 2 to <5 fold increase)”. Besides, the “HEK WC Assay (fold increase at 30 μM in the presence of 10 μM SNP)” value in experiment [2] was “E (E = 10 to <20 fold increase)”. In addition, in experiment [2], the EC50 was less than 20 µM. The results for the Emax in experiment [2] (setting [3]), in experiment [2] (setting [4]) and in experiment [2] (setting [5]) were 10 to 20%, 40 to 60% and 40 to 60%, respectively.

Consider `OCCc1cnc(-c2cc(-c3ccon3)n(Cc3ccccc3F)n2)nc1O` [Compound I-210], for which the “HEK WC Assay (fold increase at 30 μM in the absence of SNP)” value in experiment [1] is given as “C (C = 2 to <5 fold increase)”. For the same compound, the “HEK WC Assay (fold increase at 30 μM in the presence of 10 μM SNP)” value in experiment [2] was “D (D = 5 to <10 fold increase)”. Moreover, the EC50 in experiment [2] was 60 to 100 µM. For the same compound, the figures for the Emax in experiment [2] (setting [3]), in experiment [2] (setting [4]) and in experiment [2] (setting [5]) were 0 to 10%, 10 to 20% and 20 to 40%, respectively.

As for `Nc1nc(-c2cc(-c3ccon3)n(Cc3ccccc3F)n2)ncc1NC(=O)c1cccnc1` [Compound I-179], the “HEK WC Assay (fold increase at 30 μM in the absence of SNP)” value in experiment [1] is reported as “E (E = 10 to <20 fold increase)”. The “HEK WC Assay (fold increase at 30 μM in the presence of 10 μM SNP)” value in experiment [2] is recorded as “E (E = 10 to <20 fold increase)”. For the same compound, the EC50 in experiment [2] was less than 20 µM. In addition, the Emax in experiment [2] (setting [3]) was 40 to 60%; in experiment [2] (setting [4]), 60 to 80%; in experiment [2] (setting [5]), 80 to 100%.

For `N#Cc1cc(-c2ncccn2)nn1Cc1ccccc1F` [Compound I-293], in experiment [1], the “HEK WC Assay (fold increase at 30 μM in the absence of SNP)” value is “C (C = 2 to <5 fold increase)”. For the same compound, in experiment [2], the “HEK WC Assay (fold increase at 30 μM in the presence of 10 μM SNP)” value was “C (C = 2 to <5 fold increase)” and the EC50 was 40 to 60 µM. For the same compound, the Emax in experiment [2] (setting [4]) was 20 to 40%. In addition, the Emax in experiment [2] (setting [5]) was in the range of 20 to 40%.

Regarding `Fc1ccccc1Cn1nc(-c2ccccn2)cc1-c1cccc(Br)n1` [Compound I-313, 2-Bromo-6-(1-(2-fluorobenzyl)-3-(pyridin-2-yl)-1H-pyrazol-5-yl)pyridine], in experiment [1], the “HEK WC Assay (fold increase at 30 μM in the absence of SNP)” value is on record as “C (C = 2 to <5 fold increase)”. The “HEK WC Assay (fold increase at 30 μM in the presence of 10 μM SNP)” value in experiment [2] was “C (C = 2 to <5 fold increase)”. The Emax in experiment [2] (setting [4]) and in experiment [2] (setting [5]) was 0 to 10% each time.

Regarding `Fc1ccccc1Cn1nc(-c2ccccn2)cc1-c1cnco1` [Compound I-285], in experiment [1], the “HEK WC Assay (fold increase at 30 μM in the absence of SNP)” value is listed as “C (C = 2 to <5 fold increase)”. The “HEK WC Assay (fold increase at 30 μM in the presence of 10 μM SNP)” value in experiment [2] is “D (D = 5 to <10 fold increase)”. Further, the Emax in experiment [2] (setting [4]) and in experiment [2] (setting [5]) was 20 to 40% in each case.

In the case of `CCOc1cnc(-c2cc(-c3ncccn3)nn2Cc2ccccc2F)o1` [Compound I-292], in experiment [1], the “HEK WC Assay (fold increase at 30 μM in the absence of SNP)” value is “B (B = 1 to <2 fold increase)”. The “HEK WC Assay (fold increase at 30 μM in the presence of 10 μM SNP)” value in experiment [2] is listed as “B (B = 1 to <2 fold increase)”. Further, the Emax in experiment [2] (setting [4]) and in experiment [2] (setting [5]) was 0 to 10% in each case.

For the compound `Nc1nc(-c2cc(-c3ccon3)n(Cc3ccccc3F)n2)ncc1NC(=O)CCCCl` [Compound I-167], the “HEK WC Assay (fold increase at 30 μM in the absence of SNP)” value in experiment [1] was “D (D = 5 to <10 fold increase)”. Besides, in experiment [2], the “HEK WC Assay (fold increase at 30 μM in the presence of 10 μM SNP)” value is given as “G (G = 30 to <40 fold increase)”. Further, in experiment [2], the EC50 was less than 20 µM. Further, the Emax in experiment [2] (setting [3]) lay within 60 to 80%; in experiment [2] (setting [4]), 80 to 100%; in experiment [2] (setting [5]), 100 to 120%.

As for `O=S(=O)(c1ccc(F)cc1)c1cnc(-c2cc(-c3ccon3)n(Cc3ccccc3F)n2)nc1O` [Compound I-241], the “HEK WC Assay (fold increase at 30 μM in the absence of SNP)” value in experiment [1] was “D (D = 5 to <10 fold increase)”. Further, the “HEK WC Assay (fold increase at 30 μM in the presence of 10 μM SNP)” value in experiment [2] is recorded as “E (E = 10 to <20 fold increase)”. In addition, the EC50 in experiment [2] was less than 20 µM. Moreover, the Emax in experiment [2] (setting [3]) lay within 20 to 40%; in experiment [2] (setting [4]), 60 to 80%; in experiment [2] (setting [5]) it was 40 to 60%.

Turning to `CN(C(=O)c1ccccc1)c1cnc(-c2cc(-c3ccon3)n(Cc3ccccc3F)n2)nc1N` [Compound I-228], in experiment [1], the “HEK WC Assay (fold increase at 30 μM in the absence of SNP)” value is on record as “C (C = 2 to <5 fold increase)”. For the same compound, the “HEK WC Assay (fold increase at 30 μM in the presence of 10 μM SNP)” value in experiment [2] is “E (E = 10 to <20 fold increase)”. Further, the EC50 in experiment [2] is 20 to 40 µM. For the same compound, the Emax in experiment [2] (setting [3]) was 10 to 20%; in experiment [2] (setting [4]), 40 to 60%; in experiment [2] (setting [5]), 40 to 60%.

Turning to `Nc1nc(-c2cc(-c3ccon3)n(Cc3ccccc3F)n2)ncc1NC(=O)c1cocn1` [Compound I-180], the “HEK WC Assay (fold increase at 30 μM in the absence of SNP)” value in experiment [1] is “D (D = 5 to <10 fold increase)”. In experiment [2], the “HEK WC Assay (fold increase at 30 μM in the presence of 10 μM SNP)” value is “E (E = 10 to <20 fold increase)”. In addition, in experiment [2], the EC50 was less than 20 µM. For the same compound, the Emax was in the range of 40 to 60% in experiment [2] (setting [3]), 80 to 100% in experiment [2] (setting [4]) and 80 to 100% in experiment [2] (setting [5]).

As to `Oc1ccccc1Cn1nc(-c2ncccn2)cc1-c1ccon1` [Compound I-207], the “HEK WC Assay (fold increase at 30 μM in the absence of SNP)” value in experiment [1] is recorded as “B (B = 1 to <2 fold increase)”. In addition, in experiment [2], the “HEK WC Assay (fold increase at 30 μM in the presence of 10 μM SNP)” value is given as “C (C = 2 to <5 fold increase)”. The EC50 in experiment [2] lay within 900 to 1200 µM. Also, the Emax in experiment [2] (setting [3]), in experiment [2] (setting [4]) and in experiment [2] (setting [5]) was 0 to 10% throughout.

For `CC(C)=CC(=O)Nc1cnc(-c2cc(-c3ccon3)n(Cc3ccccc3F)n2)nc1N` [Compound I-240], the “HEK WC Assay (fold increase at 30 μM in the absence of SNP)” value in experiment [1] is recorded as “E (E = 10 to <20 fold increase)”. For the same compound, the “HEK WC Assay (fold increase at 30 μM in the presence of 10 μM SNP)” value in experiment [2] was “E (E = 10 to <20 fold increase)”. In addition, the EC50 in experiment [2] was less than 20 µM. Moreover, the maximum response (Emax) in experiment [2] (setting [3]), in experiment [2] (setting [4]) and in experiment [2] (setting [5]) was 60 to 80% in each case.
